# According to the kinase profiling compilation of Christmann-Franck et al. (2016):
# Key:
# Test in all cases: KINOMEscan competition binding
# Details in all cases: compound 10.0 µM
# [1] = target: PIK3CA (human) (UniProt P42336)
# [2] = target: MAP3K12 (human) (UniProt Q12852)
# [3] = target: PAK6 (human) (UniProt Q9NQU5)
# [4] = target: EPHB2 (human) (UniProt P29323)
# [5] = target: TLK1 (human) (UniProt Q9UKI8)
# [6] = target: CRK2 (P.falciparum) (UniProt P61075)
# [7] = target: LRRK2 (human) (UniProt Q5S007)
# [8] = target: PIK3CB (human) (UniProt P42338)
# [9] = target: STK4 (human) (UniProt Q13043)
# [10] = target: EPHB4 (human) (UniProt P54760)
# [11] = target: PKN1 (human) (UniProt Q16512)
# [12] = target: DSTYK (human) (UniProt Q6XUX3)
# [13] = tested on: PIK3CA (human), P42336 [E542K]
# [14] = target: EPHA7 (human) (UniProt Q15375)
# [15] = target: MAP3K2 (human) (UniProt Q9Y2U5)
# [16] = target: TLK2 (human) (UniProt Q86UE8)
# [17] = target: RPS6KA1 KD2 (human) (UniProt Q15418)
# [18] = target: ACVRL1 (human) (UniProt P37023)
# [19] = target: EPHA6 (human) (UniProt Q9UF33)
# [20] = target: TRPM6 (human) (UniProt Q9BX84)
# [21] = target: MAP3K1 (human) (UniProt Q13233)
# [22] = target: ABL2 (human) (UniProt P42684)
# [23] = target: DYRK2 (human) (UniProt Q92630)
# [24] = target: STK11 (human) (UniProt Q15831)
# [25] = target: SIK2 (human) (UniProt Q9H0K1)
# [26] = target: ULK3 (human) (UniProt Q6PHR2)
# [27] = target: PIK3C2G (human) (UniProt O75747)
# [28] = target: PIM1 (human) (UniProt P11309)
# [29] = target: CDC42BPB (human) (UniProt Q9Y5S2)
# [30] = target: MAP3K10 (human) (UniProt Q02779)
# [31] = target: EPHA3 (human) (UniProt P29320)
# [32] = target: HIPK2 (human) (UniProt Q9H2X6)
# [33] = target: PKN3 (M.tuberculosis) (UniProt Q6P5Z2)
# [34] = target: STK32B (human) (UniProt Q9NY57)
# [35] = tested on: LRRK2 (human), Q5S007 [G2019S]
# [36] = target: TYRO3 (human) (UniProt Q06418)
# [37] = target: GRK1 (human) (UniProt Q15835)
# [38] = target: DCLK3 (human) (UniProt Q9C098)
# [39] = target: RPS6KB1 (human) (UniProt P23443)
# [40] = target: AKT3 (human) (UniProt Q9Y243)
# MAP3K2 (human), sequence (Q9Y2U5 whole entry, looked up): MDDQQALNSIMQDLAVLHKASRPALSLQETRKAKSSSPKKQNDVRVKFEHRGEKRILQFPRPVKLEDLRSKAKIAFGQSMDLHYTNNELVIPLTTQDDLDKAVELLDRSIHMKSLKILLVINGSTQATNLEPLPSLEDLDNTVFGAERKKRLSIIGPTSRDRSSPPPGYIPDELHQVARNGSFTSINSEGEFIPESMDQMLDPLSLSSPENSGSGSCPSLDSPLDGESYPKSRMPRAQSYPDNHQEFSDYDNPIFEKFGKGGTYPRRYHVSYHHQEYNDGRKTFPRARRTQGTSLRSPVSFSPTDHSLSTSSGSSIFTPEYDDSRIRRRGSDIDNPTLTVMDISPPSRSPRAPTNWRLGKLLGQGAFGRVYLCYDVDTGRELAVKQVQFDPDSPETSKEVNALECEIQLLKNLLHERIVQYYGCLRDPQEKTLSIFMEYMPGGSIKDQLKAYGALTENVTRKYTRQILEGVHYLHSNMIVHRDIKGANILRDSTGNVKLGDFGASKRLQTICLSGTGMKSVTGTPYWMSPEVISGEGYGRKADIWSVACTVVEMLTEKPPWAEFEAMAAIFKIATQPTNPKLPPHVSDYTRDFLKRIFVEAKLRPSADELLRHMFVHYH
# MAP3K1 (human), sequence (Q13233 whole entry, looked up): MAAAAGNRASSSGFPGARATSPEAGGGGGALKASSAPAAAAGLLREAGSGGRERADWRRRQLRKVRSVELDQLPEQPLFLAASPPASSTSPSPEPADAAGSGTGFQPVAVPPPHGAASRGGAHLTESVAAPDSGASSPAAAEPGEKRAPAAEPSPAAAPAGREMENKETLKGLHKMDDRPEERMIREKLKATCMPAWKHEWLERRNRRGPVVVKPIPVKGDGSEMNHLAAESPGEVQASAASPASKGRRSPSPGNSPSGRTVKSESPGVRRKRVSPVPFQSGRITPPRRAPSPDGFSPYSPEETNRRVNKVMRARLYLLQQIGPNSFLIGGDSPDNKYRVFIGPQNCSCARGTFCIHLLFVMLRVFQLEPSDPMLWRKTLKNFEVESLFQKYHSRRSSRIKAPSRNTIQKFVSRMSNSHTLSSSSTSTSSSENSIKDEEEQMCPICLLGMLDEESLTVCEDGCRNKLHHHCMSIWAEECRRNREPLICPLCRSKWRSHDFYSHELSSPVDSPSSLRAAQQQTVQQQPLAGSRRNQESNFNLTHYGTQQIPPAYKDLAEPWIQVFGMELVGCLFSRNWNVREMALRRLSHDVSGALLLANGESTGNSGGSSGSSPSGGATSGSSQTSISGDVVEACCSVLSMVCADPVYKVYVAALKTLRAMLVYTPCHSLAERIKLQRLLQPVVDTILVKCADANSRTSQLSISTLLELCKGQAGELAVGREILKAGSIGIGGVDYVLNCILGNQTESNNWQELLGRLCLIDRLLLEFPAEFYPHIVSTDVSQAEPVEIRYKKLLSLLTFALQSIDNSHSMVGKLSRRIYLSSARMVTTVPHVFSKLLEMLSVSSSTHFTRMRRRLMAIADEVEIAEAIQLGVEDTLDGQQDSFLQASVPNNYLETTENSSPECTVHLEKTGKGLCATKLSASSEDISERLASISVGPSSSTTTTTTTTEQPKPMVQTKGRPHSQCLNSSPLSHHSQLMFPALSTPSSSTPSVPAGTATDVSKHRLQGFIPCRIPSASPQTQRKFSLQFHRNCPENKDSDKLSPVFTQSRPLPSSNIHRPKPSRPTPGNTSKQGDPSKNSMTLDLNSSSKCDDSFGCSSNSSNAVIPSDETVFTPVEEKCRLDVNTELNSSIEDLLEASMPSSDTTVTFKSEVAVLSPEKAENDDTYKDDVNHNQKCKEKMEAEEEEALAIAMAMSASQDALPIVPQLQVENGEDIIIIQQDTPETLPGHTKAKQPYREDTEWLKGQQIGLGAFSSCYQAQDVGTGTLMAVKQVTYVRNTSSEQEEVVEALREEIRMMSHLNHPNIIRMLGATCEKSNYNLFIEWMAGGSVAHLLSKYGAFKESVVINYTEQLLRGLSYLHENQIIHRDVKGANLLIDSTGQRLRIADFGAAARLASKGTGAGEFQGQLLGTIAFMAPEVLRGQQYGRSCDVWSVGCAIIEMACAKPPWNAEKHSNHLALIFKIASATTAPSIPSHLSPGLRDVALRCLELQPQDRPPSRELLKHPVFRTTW
# EPHA6 (human), sequence (Q9UF33 whole entry, looked up): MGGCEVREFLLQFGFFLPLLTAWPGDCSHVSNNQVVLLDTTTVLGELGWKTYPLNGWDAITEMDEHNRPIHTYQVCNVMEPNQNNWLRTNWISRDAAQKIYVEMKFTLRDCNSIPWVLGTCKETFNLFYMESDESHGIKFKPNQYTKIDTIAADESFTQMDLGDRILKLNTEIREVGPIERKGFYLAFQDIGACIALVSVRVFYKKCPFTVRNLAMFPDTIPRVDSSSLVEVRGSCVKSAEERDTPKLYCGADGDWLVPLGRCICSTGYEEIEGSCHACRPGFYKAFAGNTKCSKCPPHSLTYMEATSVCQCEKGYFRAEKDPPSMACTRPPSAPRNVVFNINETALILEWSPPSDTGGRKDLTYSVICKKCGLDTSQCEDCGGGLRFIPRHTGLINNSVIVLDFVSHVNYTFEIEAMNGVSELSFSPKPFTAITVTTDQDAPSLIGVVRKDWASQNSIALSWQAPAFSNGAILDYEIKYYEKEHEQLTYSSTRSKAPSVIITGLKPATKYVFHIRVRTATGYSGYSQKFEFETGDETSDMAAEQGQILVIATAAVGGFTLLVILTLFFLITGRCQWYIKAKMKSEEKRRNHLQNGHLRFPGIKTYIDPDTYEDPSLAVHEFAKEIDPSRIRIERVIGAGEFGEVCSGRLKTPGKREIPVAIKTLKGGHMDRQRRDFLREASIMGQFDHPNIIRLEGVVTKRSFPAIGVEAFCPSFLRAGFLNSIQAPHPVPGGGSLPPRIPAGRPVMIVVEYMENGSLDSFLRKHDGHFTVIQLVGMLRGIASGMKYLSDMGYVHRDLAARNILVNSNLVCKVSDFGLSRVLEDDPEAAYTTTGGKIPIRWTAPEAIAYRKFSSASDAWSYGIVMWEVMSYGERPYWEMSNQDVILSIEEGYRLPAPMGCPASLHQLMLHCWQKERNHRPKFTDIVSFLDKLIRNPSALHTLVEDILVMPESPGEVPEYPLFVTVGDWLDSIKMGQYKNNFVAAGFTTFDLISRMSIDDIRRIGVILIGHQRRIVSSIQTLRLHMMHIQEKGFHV
# TLK1 (human), sequence (Q9UKI8 whole entry, looked up): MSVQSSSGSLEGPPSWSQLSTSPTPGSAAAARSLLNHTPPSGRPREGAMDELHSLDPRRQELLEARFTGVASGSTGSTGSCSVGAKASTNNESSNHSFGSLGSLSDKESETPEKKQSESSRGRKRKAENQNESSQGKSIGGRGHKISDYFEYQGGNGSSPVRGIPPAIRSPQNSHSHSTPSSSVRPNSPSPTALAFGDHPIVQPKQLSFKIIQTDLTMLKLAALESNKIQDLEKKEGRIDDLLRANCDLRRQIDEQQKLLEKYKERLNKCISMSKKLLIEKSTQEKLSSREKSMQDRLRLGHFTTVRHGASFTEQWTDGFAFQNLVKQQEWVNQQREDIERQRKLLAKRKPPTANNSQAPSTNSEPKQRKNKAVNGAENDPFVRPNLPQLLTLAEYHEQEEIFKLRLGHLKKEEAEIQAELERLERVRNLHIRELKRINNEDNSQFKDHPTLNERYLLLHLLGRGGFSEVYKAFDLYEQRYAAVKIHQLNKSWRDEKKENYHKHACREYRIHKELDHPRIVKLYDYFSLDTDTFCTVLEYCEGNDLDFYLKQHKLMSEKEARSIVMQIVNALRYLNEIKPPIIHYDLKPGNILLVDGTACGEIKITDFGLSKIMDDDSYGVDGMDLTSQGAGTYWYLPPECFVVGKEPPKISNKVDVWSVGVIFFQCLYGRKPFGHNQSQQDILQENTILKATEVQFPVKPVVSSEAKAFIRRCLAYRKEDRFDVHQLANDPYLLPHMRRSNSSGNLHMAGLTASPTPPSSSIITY
# HIPK2 (human), sequence (Q9H2X6 whole entry, looked up): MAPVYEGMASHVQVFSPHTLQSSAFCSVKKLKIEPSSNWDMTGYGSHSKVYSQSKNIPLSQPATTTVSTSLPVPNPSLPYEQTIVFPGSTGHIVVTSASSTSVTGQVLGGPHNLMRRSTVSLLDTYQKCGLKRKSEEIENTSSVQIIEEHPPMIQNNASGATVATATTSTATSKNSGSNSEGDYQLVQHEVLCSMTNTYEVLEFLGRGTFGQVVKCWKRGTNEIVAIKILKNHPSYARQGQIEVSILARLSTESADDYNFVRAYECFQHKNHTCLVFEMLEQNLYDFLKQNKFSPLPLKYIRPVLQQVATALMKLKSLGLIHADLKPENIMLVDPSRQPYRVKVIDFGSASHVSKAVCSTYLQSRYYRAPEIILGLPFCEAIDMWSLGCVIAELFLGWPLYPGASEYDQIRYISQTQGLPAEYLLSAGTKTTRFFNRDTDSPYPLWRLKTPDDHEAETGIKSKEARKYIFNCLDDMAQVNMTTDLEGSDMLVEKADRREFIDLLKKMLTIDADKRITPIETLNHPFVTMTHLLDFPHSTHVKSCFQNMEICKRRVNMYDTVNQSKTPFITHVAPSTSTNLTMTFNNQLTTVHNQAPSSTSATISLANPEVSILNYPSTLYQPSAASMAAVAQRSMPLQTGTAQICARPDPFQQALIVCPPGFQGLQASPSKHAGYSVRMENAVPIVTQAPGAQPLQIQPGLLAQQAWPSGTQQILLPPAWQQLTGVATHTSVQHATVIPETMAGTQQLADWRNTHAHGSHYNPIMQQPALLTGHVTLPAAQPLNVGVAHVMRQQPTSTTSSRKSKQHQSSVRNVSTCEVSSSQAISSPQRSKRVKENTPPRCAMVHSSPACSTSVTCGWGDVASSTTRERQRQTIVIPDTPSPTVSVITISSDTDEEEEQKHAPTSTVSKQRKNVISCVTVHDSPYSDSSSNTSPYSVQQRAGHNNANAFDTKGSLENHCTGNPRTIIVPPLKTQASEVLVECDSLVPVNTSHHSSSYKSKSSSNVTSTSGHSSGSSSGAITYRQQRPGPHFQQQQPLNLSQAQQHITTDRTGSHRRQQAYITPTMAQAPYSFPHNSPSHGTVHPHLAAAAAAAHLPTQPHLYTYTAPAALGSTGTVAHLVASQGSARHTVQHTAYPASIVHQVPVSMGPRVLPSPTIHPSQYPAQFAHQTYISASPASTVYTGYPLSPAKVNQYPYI
smiles,measurement,setting,value
COc1cc2ncnc(Nc3cccc(Cl)c3)c2cc1OC,"kinase still bound, per cent of control",[1],76%
same,"kinase still bound, per cent of control",[2],92%
same,"kinase still bound, per cent of control",[3],94%
same,"kinase still bound, per cent of control",[4],67%
same,"kinase still bound, per cent of control",[5],87%
same,"kinase still bound, per cent of control",[6],100%
same,"kinase still bound, per cent of control",[7],79%
same,"kinase still bound, per cent of control",[8],47%
same,"kinase still bound, per cent of control",[9],100%
same,"kinase still bound, per cent of control",[10],38%
same,"kinase still bound, per cent of control",[11],94%
same,"kinase still bound, per cent of control",[12],43%
same,"kinase still bound, per cent of control",[13],55%
same,"kinase still bound, per cent of control",[14],46%
same,"kinase still bound, per cent of control",[15],30%
same,"kinase still bound, per cent of control",[16],100%
same,"kinase still bound, per cent of control",[17],28%
same,"kinase still bound, per cent of control",[18],100%
same,"kinase still bound, per cent of control",[19],11%
same,"kinase still bound, per cent of control",[20],77%
same,"kinase still bound, per cent of control",[21],16%
same,"kinase still bound, per cent of control",[22],34%
same,"kinase still bound, per cent of control",[23],27%
same,"kinase still bound, per cent of control",[24],86%
same,"kinase still bound, per cent of control",[25],67%
same,"kinase still bound, per cent of control",[26],24%
same,"kinase still bound, per cent of control",[27],43%
same,"kinase still bound, per cent of control",[28],49%
same,"kinase still bound, per cent of control",[29],98%
same,"kinase still bound, per cent of control",[30],100%
same,"kinase still bound, per cent of control",[31],28%
same,"kinase still bound, per cent of control",[32],80%
same,"kinase still bound, per cent of control",[33],100%
same,"kinase still bound, per cent of control",[34],100%
same,"kinase still bound, per cent of control",[35],67%
same,"kinase still bound, per cent of control",[36],23%
same,"kinase still bound, per cent of control",[37],100%
same,"kinase still bound, per cent of control",[38],52%
same,"kinase still bound, per cent of control",[39],63%
CCCS(=O)(=O)Nc1ccc(F)c(C(=O)c2c[nH]c3ncc(Cl)cc23)c1F,"kinase still bound, per cent of control",[1],82%
same,"kinase still bound, per cent of control",[2],52%
same,"kinase still bound, per cent of control",[3],45%
same,"kinase still bound, per cent of control",[4],100%
same,"kinase still bound, per cent of control",[5],58%
same,"kinase still bound, per cent of control",[6],91%
same,"kinase still bound, per cent of control",[7],37%
same,"kinase still bound, per cent of control",[8],100%
same,"kinase still bound, per cent of control",[9],38%
same,"kinase still bound, per cent of control",[10],100%
same,"kinase still bound, per cent of control",[11],85%
same,"kinase still bound, per cent of control",[12],54%
same,"kinase still bound, per cent of control",[13],100%
same,"kinase still bound, per cent of control",[14],99%
same,"kinase still bound, per cent of control",[15],62%
same,"kinase still bound, per cent of control",[16],75%
same,"kinase still bound, per cent of control",[17],75%
same,"kinase still bound, per cent of control",[18],100%
same,"kinase still bound, per cent of control",[19],100%
same,"kinase still bound, per cent of control",[20],99%
same,"kinase still bound, per cent of control",[21],73%
same,"kinase still bound, per cent of control",[22],36%
same,"kinase still bound, per cent of control",[24],79%
same,"kinase still bound, per cent of control",[25],84%
same,"kinase still bound, per cent of control",[26],60%
same,"kinase still bound, per cent of control",[27],55%
same,"kinase still bound, per cent of control",[40],100%
same,"kinase still bound, per cent of control",[28],77%
same,"kinase still bound, per cent of control",[29],100%
same,"kinase still bound, per cent of control",[30],87%
same,"kinase still bound, per cent of control",[31],65%
same,"kinase still bound, per cent of control",[32],20%
same,"kinase still bound, per cent of control",[33],46%
same,"kinase still bound, per cent of control",[34],100%
same,"kinase still bound, per cent of control",[35],38%
same,"kinase still bound, per cent of control",[36],100%
same,"kinase still bound, per cent of control",[37],100%
same,"kinase still bound, per cent of control",[38],26%
same,"kinase still bound, per cent of control",[39],58%
CCN(CCO)CCCOc1ccc2c(Nc3cc(CC(=O)Nc4cccc(F)c4)[nH]n3)ncnc2c1,"kinase still bound, per cent of control",[1],100%
same,"kinase still bound, per cent of control",[2],58%
same,"kinase still bound, per cent of control",[3],98%
same,"kinase still bound, per cent of control",[4],93%
same,"kinase still bound, per cent of control",[5],60%
same,"kinase still bound, per cent of control",[6],100%
same,"kinase still bound, per cent of control",[7],100%
same,"kinase still bound, per cent of control",[8],81%
same,"kinase still bound, per cent of control",[9],40%
same,"kinase still bound, per cent of control",[10],100%
same,"kinase still bound, per cent of control",[11],90%
same,"kinase still bound, per cent of control",[12],14%
same,"kinase still bound, per cent of control",[13],100%
same,"kinase still bound, per cent of control",[14],74%
same,"kinase still bound, per cent of control",[15],87%
same,"kinase still bound, per cent of control",[16],100%
same,"kinase still bound, per cent of control",[17],69%
same,"kinase still bound, per cent of control",[18],97%
same,"kinase still bound, per cent of control",[19],69%
same,"kinase still bound, per cent of control",[20],100%
same,"kinase still bound, per cent of control",[23],73%
same,"kinase still bound, per cent of control",[24],80%
same,"kinase still bound, per cent of control",[25],70%
same,"kinase still bound, per cent of control",[26],69%
same,"kinase still bound, per cent of control",[27],21%
same,"kinase still bound, per cent of control",[40],88%
same,"kinase still bound, per cent of control",[28],100%
same,"kinase still bound, per cent of control",[29],100%
same,"kinase still bound, per cent of control",[30],92%
same,"kinase still bound, per cent of control",[31],62%
same,"kinase still bound, per cent of control",[32],31%
same,"kinase still bound, per cent of control",[33],50%
same,"kinase still bound, per cent of control",[34],100%
same,"kinase still bound, per cent of control",[35],100%
same,"kinase still bound, per cent of control",[36],100%
same,"kinase still bound, per cent of control",[37],100%
same,"kinase still bound, per cent of control",[38],86%
same,"kinase still bound, per cent of control",[39],13%
CC(=O)c1c(C)c2cnc(Nc3ccc(N4CCNCC4)cn3)nc2n(C2CCCC2)c1=O,"kinase still bound, per cent of control",[1],69%
same,"kinase still bound, per cent of control",[2],47%
same,"kinase still bound, per cent of control",[3],66%
same,"kinase still bound, per cent of control",[5],42%
same,"kinase still bound, per cent of control",[6],19%
same,"kinase still bound, per cent of control",[7],50%
same,"kinase still bound, per cent of control",[8],7.3%
same,"kinase still bound, per cent of control",[9],74%
same,"kinase still bound, per cent of control",[10],100%
same,"kinase still bound, per cent of control",[11],66%
same,"kinase still bound, per cent of control",[12],5%
same,"kinase still bound, per cent of control",[15],49%
same,"kinase still bound, per cent of control",[16],89%
same,"kinase still bound, per cent of control",[17],38%
same,"kinase still bound, per cent of control",[19],96%
same,"kinase still bound, per cent of control",[20],91%
same,"kinase still bound, per cent of control",[21],87%
same,"kinase still bound, per cent of control",[22],97%
same,"kinase still bound, per cent of control",[23],5.5%
same,"kinase still bound, per cent of control",[24],82%
same,"kinase still bound, per cent of control",[25],63%
same,"kinase still bound, per cent of control",[26],40%
same,"kinase still bound, per cent of control",[27],20%
same,"kinase still bound, per cent of control",[29],91%
same,"kinase still bound, per cent of control",[30],93%
same,"kinase still bound, per cent of control",[31],66%
same,"kinase still bound, per cent of control",[32],0.25%
same,"kinase still bound, per cent of control",[33],1%
same,"kinase still bound, per cent of control",[35],39%
same,"kinase still bound, per cent of control",[36],93%
same,"kinase still bound, per cent of control",[37],89%
same,"kinase still bound, per cent of control",[38],9.6%
same,"kinase still bound, per cent of control",[39],36%
